Reference: PubChem BioAssay (NCI)
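1) Cells in 96-well plates. 2) Compound, 48 h, 5 concentrations. 3) Linear interpolation between surrounding doses. 4) Unreached endpoint = highest concentration. Definition used: TGI = concentration required for complete inhibition of growth.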

What was measured:
Experiment in all cases: NCI anticancer screen, dose series, 48 h
[1] = tested on: A498 renal
[2] = tested on: HCC-2998 colon
[3] = tested on: HCT-15 colon
[4] = tested on: HT29 colon
[5] = tested on: IGROV1 ovarian
[6] = tested on: MOLT-4 leukemia
[7] = tested on: NCI-H226 lung
[8] = tested on: NCI-H23 lung
[9] = tested on: NCI-H522 lung
[10] = tested on: OVCAR-4 ovarian
[11] = tested on: OVCAR-5 ovarian
[12] = tested on: OVCAR-8 ovarian
[13] = tested on: SF-268 CNS
[14] = tested on: SK-MEL-2 melanoma
[15] = tested on: SK-MEL-28 melanoma
[16] = tested on: SN12C renal
[17] = tested on: SNB-19 CNS
[18] = tested on: TK-10 renal
[19] = tested on: UACC-257 melanoma
[20] = tested on: UACC-62 melanoma

Compound: CC(=O)c1cccc(NC(=O)C(=O)C(C(=O)c2ccccc2F)C2OC(=O)c3ccccc32)c1 (centres undefined)
- TGI [1]: > 100 µM
- TGI [2]: 53.9 µM
- TGI [3]: > 100 µM
- TGI [4]: > 100 µM
- TGI [5]: > 100 µM
- TGI [6]: > 100 µM
- TGI [7]: 67.3 µM
- TGI [8]: > 100 µM
- TGI [9]: 56.7 µM
- TGI [10]: > 100 µM
- TGI [11]: > 100 µM
- TGI [12]: > 100 µM
- TGI [13]: > 100 µM
- TGI [14]: 96.1 µM
- TGI [15]: > 100 µM
- TGI [16]: > 100 µM
- TGI [17]: > 100 µM
- TGI [18]: > 100 µM
- TGI [19]: > 100 µM
- TGI [20]: > 100 µM

Compound: CCOC(=O)C1=NN(c2ccccc2)C2=CC(C)=NN(C)C(=S)N21
- TGI [2]: > 100 µM
- TGI [3]: > 100 µM
- TGI [4]: > 100 µM
- TGI [5]: > 100 µM
- TGI [6]: > 100 µM
- TGI [8]: > 100 µM
- TGI [9]: > 100 µM
- TGI [10]: > 100 µM
- TGI [11]: > 100 µM
- TGI [12]: > 100 µM
- TGI [13]: > 100 µM
- TGI [14]: > 100 µM
- TGI [15]: > 100 µM
- TGI [16]: > 100 µM
- TGI [17]: > 100 µM
- TGI [18]: > 100 µM
- TGI [19]: > 100 µM
- TGI [20]: > 100 µM

Compound: Nc1nc(Cl)cc(NCCCCCCCCCCCCNc2cc(Cl)nc(N)n2)n1
- TGI [1]: > 100 µM
- TGI [2]: > 100 µM
- TGI [3]: > 100 µM
- TGI [4]: > 100 µM
- TGI [5]: > 100 µM
- TGI [6]: > 100 µM
- TGI [7]: 66.9 µM
- TGI [8]: 12.6 µM
- TGI [10]: 75.2 µM
- TGI [12]: 44 µM
- TGI [13]: > 100 µM
- TGI [14]: > 100 µM
- TGI [15]: 30 µM
- TGI [16]: > 100 µM
- TGI [18]: > 100 µM
- TGI [19]: > 100 µM
- TGI [20]: > 100 µM

Compound: CC[C@](C)(O)C(=O)O[C@H]1C(=O)O[C@@H]2C[C@H]3C(C)=C[C@H](O)[C@@H](O)[C@]3(C)[C@H]3[C@@]4(O)OC[C@]32[C@@H]1[C@@H](C)[C@H]4O
- TGI [1]: 71.5 µM
- TGI [2]: 71.4 µM
- TGI [3]: 221 µM
- TGI [4]: 120 µM
- TGI [5]: 52.5 µM
- TGI [6]: 27.5 µM
- TGI [7]: 81.2 µM
- TGI [8]: 13.5 µM
- TGI [9]: 9.8 µM
- TGI [10]: 185 µM
- TGI [11]: 291 µM
- TGI [12]: 136 µM
- TGI [13]: 207 µM
- TGI [14]: 118 µM
- TGI [15]: 123 µM
- TGI [16]: 310 µM
- TGI [17]: 48.8 µM
- TGI [19]: 149 µM
- TGI [20]: 94.2 µM
